Measured values published in ChEMBL document CHEMBL3045111, “Synthesis and herbicidal activities of novel 3-(substituted benzyloxy or phenoxy)-6-methyl-4-(3-trifluoromethylphenyl)pyridazine derivatives” (2012).
Calls of active or inactive are those of the source. No cut-off for these calls is given here.

Assays:
[1] = tested on: Brassica rapa subsp. oleifera; test: Post-emergence herbicidal activity against one-leaf stage Brassica rapa subsp. oleifera under greenhouse condition assessed as complete bleaching of leaves at 600 g /ha measured after 24 days by spray method; format: functional, organism-based
[2] = tested on: Brassica rapa subsp. oleifera; test: Post-emergence herbicidal activity against one-leaf stage Brassica rapa subsp. oleifera under greenhouse condition at 75 g /ha measured after 24 days by spray method; format: functional; details: 576 h, read-out: GI
[3] = tested on: Brassica rapa subsp. oleifera; test: Post-emergence herbicidal activity against one-leaf stage Brassica rapa subsp. oleifera under greenhouse condition at 150 g /ha measured after 24 days by spray method; format: functional; details: 576 h, read-out: GI
[4] = tested on: Brassica rapa subsp. oleifera; test: Post-emergence herbicidal activity against one-leaf stage Brassica rapa subsp. oleifera under greenhouse condition at 300 g /ha measured after 24 days by spray method; format: functional; details: 576 h, read-out: GI
[5] = tested on: Brassica rapa subsp. oleifera; test: Post-emergence herbicidal activity against one-leaf stage Brassica rapa subsp. oleifera under greenhouse condition at 600 g /ha measured after 24 days by spray method; format: functional; details: 576 h, read-out: GI
Digitaria [6] = test: Post-emergence herbicidal activity against one-leaf stage of Digitaria adscendens under greenhouse condition at 750 g /ha measured after 24 days by spray method; format: functional; details: in Digitaria adscendens, 576 h, read-out: GI
Echinochloa crus-galli [7] = test: Post-emergence herbicidal activity against one-leaf stage of Echinochloa crus-galli (barnyard grass) under greenhouse condition at 750 g /ha measured after 24 days by spray method; format: functional; details: 576 h, read-out: GI
Amaranthus retroflexus [8] = test: Post-emergence herbicidal activity against one-leaf stage of Amaranthus retroflexus under greenhouse condition at 750 g /ha measured after 24 days by spray method; format: functional; details: 576 h, read-out: GI
[9] = tested on: Brassica rapa subsp. oleifera; test: Post-emergence herbicidal activity against one-leaf stage Brassica rapa subsp. oleifera under greenhouse condition at 750 g /ha measured after 24 days by spray method; format: functional; details: 576 h, read-out: GI
Digitaria [10] = test: Pre-emergence herbicidal activity against Digitaria adscendens under greenhouse condition at 750 g /ha measured after 24 days by spray method; format: functional; details: in Digitaria adscendens, 576 h, read-out: GI
Echinochloa crus-galli [11] = test: Pre-emergence herbicidal activity against Echinochloa crus-galli (barnyard grass) under greenhouse condition at 750 g /ha measured after 24 days by spray method; format: functional; details: 576 h, read-out: GI
Amaranthus retroflexus [12] = test: Pre-emergence herbicidal activity against Amaranthus retroflexus under greenhouse condition at 750 g /ha measured after 24 days by spray method; format: functional; details: 576 h, read-out: GI
[13] = tested on: Brassica rapa subsp. oleifera; test: Pre-emergence herbicidal activity against Brassica rapa subsp. oleifera under greenhouse condition at 750 g /ha measured after 24 days by spray method; format: functional; details: 576 h, read-out: GI
Spirodela polyrhiza [14] = test: Bleaching herbicidal activity in Spirodela polyrhiza fronds cultured in compound-containing in medium assessed as chlorophyll inhibition at 1 ug/ml after 7 days; format: functional; details: 168 h
Spirodela polyrhiza [15] = test: Bleaching herbicidal activity in Spirodela polyrhiza fronds cultured in compound-containing in medium assessed as chlorophyll inhibition at 10 ug/ml after 7 days; format: functional; details: 168 h
Amaranthus retroflexus [16] = test: Post-emergence herbicidal activity against one-leaf stage Amaranthus retroflexus under greenhouse condition assessed as complete bleaching of leaves at 150 g /ha measured after 24 days by spray method; format: functional, organism-based
Amaranthus retroflexus [17] = test: Post-emergence herbicidal activity against one-leaf stage Amaranthus retroflexus under greenhouse condition assessed as complete bleaching of leaves at 300 g /ha measured after 24 days by spray method; format: functional, organism-based
Amaranthus retroflexus [18] = test: Post-emergence herbicidal activity against one-leaf stage Amaranthus retroflexus under greenhouse condition assessed as complete bleaching of leaves at 600 g /ha measured after 24 days by spray method; format: functional, organism-based
[19] = tested on: Brassica rapa subsp. oleifera; test: Post-emergence herbicidal activity against one-leaf stage Brassica rapa subsp. oleifera under greenhouse condition assessed as complete bleaching of leaves at 75 g /ha measured after 24 days by spray method; format: functional, organism-based
[20] = tested on: Brassica rapa subsp. oleifera; test: Post-emergence herbicidal activity against one-leaf stage Brassica rapa subsp. oleifera under greenhouse condition assessed as complete bleaching of leaves at 150 g /ha measured after 24 days by spray method; format: functional, organism-based
[21] = tested on: Brassica rapa subsp. oleifera; test: Post-emergence herbicidal activity against one-leaf stage Brassica rapa subsp. oleifera under greenhouse condition assessed as complete bleaching of leaves at 300 g /ha measured after 24 days by spray method; format: functional, organism-based
Amaranthus retroflexus [22] = test: Post-emergence herbicidal activity against one-leaf stage Amaranthus retroflexus under greenhouse condition at 75 g /ha measured after 24 days by spray method; format: functional; details: 576 h, read-out: GI
Amaranthus retroflexus [23] = test: Post-emergence herbicidal activity against one-leaf stage Amaranthus retroflexus under greenhouse condition at 150 g /ha measured after 24 days by spray method; format: functional; details: 576 h, read-out: GI
Amaranthus retroflexus [24] = test: Post-emergence herbicidal activity against one-leaf stage Amaranthus retroflexus under greenhouse condition at 300 g /ha measured after 24 days by spray method; format: functional; details: 576 h, read-out: GI
Amaranthus retroflexus [25] = test: Post-emergence herbicidal activity against one-leaf stage Amaranthus retroflexus under greenhouse condition at 600 g /ha measured after 24 days by spray method; format: functional; details: 576 h, read-out: GI

Structure (SMILES) | Activity [1] | inhibition of growth at 75 g/ha [2] | inhibition of growth at 150 g/ha [3] | inhibition of growth at 300 g/ha [4] | inhibition of growth at 600 g/ha [5] | inhibition of growth at 750 g/ha (Digitaria [6]) | inhibition of growth at 750 g/ha (Echinochloa crus-galli [7]) | inhibition of growth at 750 g/ha (Amaranthus retroflexus [8]) | inhibition of growth at 750 g/ha [9] | inhibition of growth at 750 g/ha (Digitaria [10]) | inhibition of growth at 750 g/ha (Echinochloa crus-galli [11]) | inhibition of growth at 750 g/ha (Amaranthus retroflexus [12]) | inhibition of growth at 750 g/ha [13] | inhibition at 1 µg/mL (Spirodela polyrhiza [14]) | inhibition at 10 µg/mL (Spirodela polyrhiza [15]) | Activity (Amaranthus retroflexus [16]) | Activity (Amaranthus retroflexus [17]) | Activity (Amaranthus retroflexus [18]) | Activity [19] | Activity [20] | further results
Cc1cc(-c2cccc(C(F)(F)F)c2)c(Oc2ccccc2)nn1 | Active | 38% | 53% | 56% | 75% | 88% | 26% | 75% | 99% | 87% | 0% | 0% | 0% | 68% | 75% | Active | Active | Active | Active | Active | Activity [21]: Active; inhibition of growth at 75 g/ha (Amaranthus retroflexus [22]): 22%; inhibition of growth at 150 g/ha (Amaranthus retroflexus [23]): 36%; inhibition of growth at 300 g/ha (Amaranthus retroflexus [24]): 64%; inhibition of growth at 600 g/ha (Amaranthus retroflexus [25]): 96%
Cc1ccc(Oc2nnc(C)cc2-c2cccc(C(F)(F)F)c2)cc1 | Active | 56% | 67% | 89% | 97% | 30% | 47% | 84% | 100% | 44% | 0% | 0% | 13% | 82% | 94% | Active | Active | Active | Active | Active | Activity [21]: Active; inhibition of growth at 75 g/ha (Amaranthus retroflexus [22]): 5%; inhibition of growth at 150 g/ha (Amaranthus retroflexus [23]): 47%; inhibition of growth at 300 g/ha (Amaranthus retroflexus [24]): 58%; inhibition of growth at 600 g/ha (Amaranthus retroflexus [25]): 76%
Cc1cc(-c2cccc(C(F)(F)F)c2)c(Oc2cccc(C(F)(F)F)c2)nn1 | Active | 39% | 52% | 58% | 66% | 62% | 38% | 79% | 99% | 7% | 0% | 0% | 0% | 84% | 92% | Active | Active | Active | Active | Active | Activity [21]: Active; inhibition of growth at 75 g/ha (Amaranthus retroflexus [22]): 19%; inhibition of growth at 150 g/ha (Amaranthus retroflexus [23]): 49%; inhibition of growth at 300 g/ha (Amaranthus retroflexus [24]): 70%; inhibition of growth at 600 g/ha (Amaranthus retroflexus [25]): 94%
